Measured values: US20190083455A1, “METHODS AND COMPOSITIONS FOR THE MODULATION OF BETA-ENDORPHIN LEVELS” (The General Hospital Corporation, priority 2014, published 2019)
“And” between values parts separate entries of the source, which are not always exact repeats. Equal values may be shown once. Where a name gives a salt, the structure may show the parent alone.

Legend:
Type in all cases: in vivo
C57Bl/6 mice [1] = test: Analgesic threshold testing (von Frey test and hot plate test) during UV/mock regimen; conditions: 10 mg/kg ip 15 min prior to testing; chronically UV-irradiated mice
Text: Mice underwent mechanical and thermal analgesic testing during UV/mock treatment regimens using the von Frey test (Kwan et al., 2006) and the hot plate test respectively (Mogil et al., 1999). In the von Frey test, mice were placed in individual enclosures on an elevated wire mesh rack and the plantar surface of the left hind paw was serially poked with fibers of increasing tensile strength (10 times per fiber at a rate of 1/second) until a paw withdrawal response was elicited on 2/10 pokes. In the hot plate test, mice were placed on a 52° C. hot plate and time to response (paw flutter, paw licking, jumping) was measured. […]
We developed a UV-exposure mouse model in which dorsally-shaved mice received a dose of 50 mJ/cm^2 of UVB, 5 days per week for 6 weeks, an empirically-derived sub-erythemic dose which is approximately equal to 20-30 minutes of ambient midday sun exposure in Florida during the summer for a fair-skinned person of average tanning ability (Fitzpatrick skin phototypes 2-3) (D'Orazio et al., 2006; Technology-Planning-and-Management-Corporation, 2000; US-EPA, 1994). […] We quantified mechanical and thermal nociceptive thresholds over six weeks of daily UV exposure. Mechanical nociception was measured by the von Frey test (Kwan et al., 2006), which exposes fibers of increasing tensile strength to the plantar paw surface to elicit a paw withdrawal response. […]

C57Bl/6 mice [2] = test: Conditioned place aversion testing
Protocol: The apparatus used consisted of a box with black interior and dim lighting and a box with white interior and bright lighting connected by a smaller gray “neutral” box, and procedures were followed as described (Skoubis et al., 2001; Weitemier and Murphy, 2009). Mice that had undergone 6 weeks of daily UV exposure or mock exposure were tested for baseline place preferences prior to conditioning (10-minute testing time per mouse). Over the following 4 days, conditioning took place in which mice were either conditioned with naloxone (10 mg/kg ip injection) or saline (ip injection) in the black box, and all animals were conditioned with saline (ip injection) in the white box. Conditioning time in each box was 30 minutes following injection. For each animal there were four hours between conditioning in one box and conditioning in the other box. On the day following the final day of conditioning, place preferences were again tested (post-conditioning, 10-minute testing time per mouse).
Because the magnitude of the measured withdrawal symptoms, while significant, was smaller than that commonly observed with exogenously administered opioids (Broseta et al., 2002), we wished to determine whether these withdrawal signs would be sufficient to elicit alterations in pro-active/operant behavioral choices. We utilized a conditioned place aversion assay (Skoubis et al., 2001; Weitemier and Murphy, 2009) to test whether a specific environment, paired with naloxone administration during conditioning, would be avoided in favor of a different environment paired with a neutral stimulus (saline) during conditioning in chronically UV-irradiated animals. Due to the kinetics of the UV response we chose to use naloxone as it allowed an acute effect of limited duration. Naloxone induces conditioned place aversion in exogenous opioid-dependent mice (Glass et al., 2008; Kenny et al., 2006). Following conditioning, mice were permitted to move freely between the two environments and changes in place preference were measured, in the absence of additional naloxone or saline administration. […]

C57Bl/6 mice [3] = test: Somatic symptoms of opiate withdrawal after chronic UV exposure; conditions: 2 mg/kg ip after 6 weeks of daily UV exposure; observed 25 minutes
Protocol: Mice that had undergone 6 weeks of daily UV exposure or mock exposure were injected (ip) with either 2 mg/kg naloxone or saline, and signs of opioid withdrawal were tabulated as described (Olson et al., 2006). […] Wet dog shake, teeth chatter, and bouts of grooming were measured as occurrence in each 15-second interval. Individual rearing events were counted. Number of fecal pellets at the end of the 25-minute interval was used to quantify diarrhea.

K14-e/e and e/e mice = test: Naloxone-precipitated symptoms of opiate withdrawal in forskolin plus rolipram treated mice; conditions: individual forskolin plus rolipram treated mice, naloxone 2 mg/kg; for Rearing: 25 min; for Jumping: events in 25 min; for Diarrhea: fecal pellets at 25 min; for Paw Tremor / Teeth Chatter / Wet Dog Shake / oming: occurrence per 15 sec interval over 25 min
Protocol: Female mice were treated with 40 μL of 20%-Forskolin extract daily and 40 μL of rolipram (Sigma) 20 μM in DMSO or vehicle control. Basal blood samples were collected at the beginning of each experiment. After treatment started, blood samples were collected once a week. After 4 weeks of continuous exposure to forskolin and rolipram or vehicle control, mice were injected with saline or naloxone and symptoms of opiate withdrawal were measured for 25 min post injection. Naloxone (St. Luis, Mo.) was diluted in saline at […] and was administrated to mice ˜200 μL, depending on the mass of each mouse (2 mg/kg). Symptoms assigned were wet dog shake (WDS), paw tremor, jumping, bouts of grooming, teeth chatter (TC), rearing and diarrhea. The occurrence in each 15 sec interval of WDS, paw tremor, bouts of grooming and teeth chatter (TC) was used to quantify these parameters. The number of fecal pellets and the individual jumping events at the end of 25 min were quantified for these two factors.
Finally, the functional significance of systemic β-endorphin elevations upon cAMP activation was tested by carrying out behavioral studies on forskolin plus rolipram treated mice.

In the case of `C=CCN1CC[C@]23c4c5ccc(O)c4O[C@H]2C(=O)CC[C@@]3(O)[C@H]1C5` [naloxone, naloxone hydrochloride], the “mechanical nociceptive threshold (von Frey)” value (C57Bl/6 mice [1]) is reported as “suppressed the UV-induced increases in mechanical and thermal nociceptive thresholds”, the “thermal nociceptive threshold (hot plate 52° C.)” value (C57Bl/6 mice [1]) is reported as “suppressed the UV-induced increases in mechanical and thermal nociceptive thresholds” and the conditioned place aversion (C57Bl/6 mice [2]; 10 mg/kg ip conditioning in the black box, chronically UV-irradiated mice) is reported as “sufficient to induce conditioned place aversion”. For the same molecule, the conditioned place aversion (C57Bl/6 mice [2]; 10 mg/kg ip conditioning in the black box, mock-treated (non-UV irradiated) control mice) was “had no effect on mock-treated (non-UV irradiated) control mice”, the conditioned place aversion (C57Bl/6 mice [2]; K14cre control mice vs p53fl/fl K14cre mice after 3 weeks of daily UV exposure) was “significant naloxone conditioned place aversion” and the “signs of opioid withdrawal” value (C57Bl/6 mice [3]) was “elicited many of the classic murine signs of opioid withdrawal”. For the same molecule, the Rearing (K14-e/e and e/e mice; K14:e/e) was 0, the Jumping (K14-e/e and e/e mice; K14:e/e) was 0 and the Diarrhea (K14-e/e and e/e mice; K14:e/e, hydrochloride) was 0 and 1. The “Paw Tremor” value (K14-e/e and e/e mice; K14:e/e, hydrochloride) was 0 and 2, the “Teeth Chatter” value (K14-e/e and e/e mice; K14:e/e, hydrochloride) was 80 and 107 and the “Wet Dog Shake” value (K14-e/e and e/e mice; K14:e/e, hydrochloride) was 145 and 135. The oming (K14-e/e and e/e mice; K14:e/e, hydrochloride) was 17 and 2, the Rearing (K14-e/e and e/e mice; e/e, hydrochloride) was 0 and 18 and the Jumping (K14-e/e and e/e mice; e/e) was 0. For the same molecule, the Diarrhea (K14-e/e and e/e mice; e/e, hydrochloride) was 1 and 2, the “Paw Tremor” value (K14-e/e and e/e mice; e/e, hydrochloride) was 4 and 34 and the “Teeth Chatter” value (K14-e/e and e/e mice; e/e, hydrochloride) was 116 and 75. The “Wet Dog Shake” value (K14-e/e and e/e mice; e/e, hydrochloride) was 120 and 76 and the oming (K14-e/e and e/e mice; e/e, hydrochloride) was 13 and 19.
